Results on 24 compounds are retold here after US6720331B2, “1-substituted 1,2,3,4-tetrahydro-β-carboline and 3,4-dihydro-β-carboline and analogs as antitumor agents” (National Sun Yat-sen University, priority 2001, dated 2004).

Series [1] concerns HT-29 (human colon adenocarcinoma). In words: Growth inhibition of tumor cell line HT-29 (Table 1). In kind it is cell-based. The note with it: for IC50: Homo sapiens, HT-29, 144 h, read-out: IC50, concentration inhibiting 50% of the growth of HT-29.
Series [2] has as its system KB-16 (human nasopharyngeal carcinoma). In words: Growth inhibition of tumor cell line KB-16 (Table 1). The class given is cell-based. The following applies: for IC50: Homo sapiens, KB16, 72 h, read-out: IC50, concentration inhibiting 50% of the growth of KB-16.
In series [3] the test system is A-549 (human lung adenocarcinoma). In words: Growth inhibition of tumor cell line A-549 (Table 1). The class given is cell-based. The following applies: for IC50: Homo sapiens, A549, 144 h, read-out: IC50, concentration inhibiting 50% of the growth of A-549.
Another series has as its system P-388 (murine leukemia). Nature of the series: Growth inhibition of tumor cell line P-388 (Table 1). The class given is cell-based. The note with it: for IC50: Mus musculus, P388, 72 h, read-out: IC50, concentration inhibiting 50% of the growth of P-388.
The test system of another series is murine P-388 cells. The following applies: Sakai et al., J Am Chem Soc 1986; cited from earlier work.
Where [4] appears, read: 6 day drug exposure, columns A/B = scaffold type.
Setting [5] is: 3 day drug exposure, columns A/B = scaffold type.

Converted amounts (≈) assume the structure as drawn. Like-named read-outs stand apart in the source and are kept apart here.

On to `COc1cc(C2NCCc3c2[nH]c2ccccc32)cc(OC)c1OC` (stereo not drawn) [Compound 13, 1-(3′,4′,5′-Trimethoxyphenyl)-1,2,3,4-tetrahydro-β-carboline], for which the IC50 in series [1] (setting [4]) is 1.6 µg/mL (≈ 4.73 µM); in series [2] (setting [5]) it was 8.3 µg/mL (≈ 24.5 µM); in series [3] (setting [4]) it was 2 µg/mL (≈ 5.91 µM); with P-388 (murine leukemia) (setting [5]) it was 1.2 µg/mL (≈ 3.55 µM).
On the same counts, the results for `CC(=O)O[C@H]1C(=O)[C@@]2(C)[C@H]([C@H](OC(=O)c3ccccc3)[C@]3(O)C[C@H](OC(=O)[C@H](O)[C@@H](NC(=O)c4ccccc4)c4ccccc4)C(C)=C1C3(C)C)[C@]1(OC(C)=O)CO[C@@H]1C[C@@H]2O` [Compound 30, paclitaxel, reference compound] are below 0.001 µg/mL, below 0.001 µg/mL, below 0.001 µg/mL and below 0.001 µg/mL.
`COc1cc(OC)cc(C2=NCCc3c2[nH]c2ccccc32)c1` [Compound 25, 1-(3′,5′-Dimethoxyphenyl)-3,4-dihydro-β-carboline]: the IC50 is 0.6 µg/mL (≈ 1.96 µM) in series [1] (setting [4]), 1 µg/mL (≈ 3.26 µM) in series [2] (setting [5]), 0.6 µg/mL (≈ 1.96 µM) in series [3] (setting [4]) and 0.4 µg/mL (≈ 1.31 µM) in the series on P-388 (murine leukemia) (setting [5]).
Consider `CN(C)c1ccc(C2NCCc3c2[nH]c2ccccc32)cc1` (stereo not drawn) [Compound 7, 1-(4′-Dimethylaminophenyl)-1,2,3,4-tetrahydro-β-carboline], for which the IC50 was determined as 0.7 µg/mL (≈ 2.4 µM) in series [1] (setting [4]), 1.7 µg/mL (≈ 5.83 µM) in series [2] (setting [5]), 1.6 µg/mL (≈ 5.49 µM) in series [3] (setting [4]) and 2.2 µg/mL (≈ 7.55 µM) with P-388 (murine leukemia) (setting [5]).
On the same counts, the results for `COc1ccc(C2=NCCc3c2[nH]c2ccccc32)c(OC)c1` [Compound 22, 1-(2′,4′-Dimethoxyphenyl)-3,4-dihydro-β-carboline] are 0.5 µg/mL (≈ 1.63 µM), 2.7 µg/mL (≈ 8.81 µM), 0.5 µg/mL (≈ 1.63 µM) and 0.6 µg/mL (≈ 1.96 µM).
As to `CCn1c2ccccc2c2cc(C3NCCc4c3[nH]c3ccccc43)ccc21` (stereo not drawn) [Compound 16, 1-(9′-Ethyl-3′-carbazole)-1,2,3,4-tetrahydro-β-carboline], the “IC50, concentration inhibiting 50% of the growth of HT-29” value in series [1] (setting [4]) turned out to be 0.5 µg/mL. For the same compound, the “IC50, concentration inhibiting 50% of the growth of KB-16” value in series [2] (setting [5]) was determined as 0.8 µg/mL. The “IC50, concentration inhibiting 50% of the growth of A-549” value in series [3] (setting [4]) worked out at 0.8 µg/mL. For the same compound, the “IC50, concentration inhibiting 50% of the growth of P-388” value in the series on P-388 (murine leukemia) (setting [5]) came out at 0.7 µg/mL.
For the compound `COc1ccc(C2=NCCc3c2[nH]c2ccccc32)cc1OC` [Compound 23, 1-(3′,4′-Dimethoxyphenyl)-3,4-dihydro-β-carboline], the IC50 came to 2.7 µg/mL (≈ 8.81 µM) in series [1] (setting [4]), 15 µg/mL (≈ 49 µM) in series [2] (setting [5]), 12 µg/mL (≈ 39.2 µM) in series [3] (setting [4]) and 2.7 µg/mL (≈ 8.81 µM) with P-388 (murine leukemia) (setting [5]).
Turning to `COc1ccc(C2NCCc3c2[nH]c2ccccc32)cc1OC` (stereo not drawn) [Compound 10, 1-(3′,4′-Dimethoxyphenyl)-1,2,3,4-tetrahydro-β-carboline], the IC50 in series [1] (setting [4]) is above 50 µg/mL; in series [2] (setting [5]) it was above 50 µg/mL; in series [3] (setting [4]), above 50 µg/mL; with P-388 (murine leukemia) (setting [5]) it was 2.8 µg/mL (≈ 9.08 µM).
In the case of “1-(2′-Fluorenyl)-3,4-dihydro-β-carboline [Compound 28]”, the “IC50, concentration inhibiting 50% of the growth of HT-29” value in series [1] (setting [4]) worked out at 0.7 µg/mL. For the same compound, the “IC50, concentration inhibiting 50% of the growth of KB-16” value in series [2] (setting [5]) was found to be 1.4 µg/mL. In addition, the “IC50, concentration inhibiting 50% of the growth of A-549” value in series [3] (setting [4]) was 0.6 µg/mL. The “IC50, concentration inhibiting 50% of the growth of P-388” value in the series with P-388 (murine leukemia) (setting [5]) came out at 0.1 µg/mL.
`CCN(CC)c1ccc(C2=NCCc3c2[nH]c2ccccc32)cc1` [Compound 21, 1-(4′-Diethylaminophenyl)-3,4-dihydro-β-carboline]: the IC50 is 1.3 µg/mL (≈ 4.1 µM) in series [1] (setting [4]), 0.3 µg/mL (≈ 0.945 µM) in series [2] (setting [5]), 1.8 µg/mL (≈ 5.67 µM) in series [3] (setting [4]) and 0.7 µg/mL (≈ 2.21 µM) in the series on P-388 (murine leukemia) (setting [5]).
On the same counts, the results for `COc1ccc(OC)c(C2=NCCc3c2[nH]c2ccccc32)c1` [Compound 24, 1-(2′,5′-Dimethoxyphenyl)-3,4-dihydro-β-carboline] are 0.4 µg/mL (≈ 1.31 µM), 0.7 µg/mL (≈ 2.28 µM), 0.2 µg/mL (≈ 0.653 µM) and 1.1 µg/mL (≈ 3.59 µM).
On the same counts, the results for `CN(C)c1ccc(C2=NCCc3c2[nH]c2ccccc32)cc1` [Compound 20, 1-(4′-Dimethylaminophenyl)-3,4-dihydro-β-carboline] are 3 µg/mL (≈ 10.4 µM), 4.8 µg/mL (≈ 16.6 µM), 50 µg/mL (≈ 173 µM) and 2.9 µg/mL (≈ 10 µM).
On the same counts, the results for `O=[N+]([O-])c1ccc(C2NCCc3c2[nH]c2ccccc32)cc1` (stereo not drawn) [Compound 6, 1-(4′-Nitrophenyl)-1,2,3,4-tetrahydro-β-carboline] are 1.5 µg/mL (≈ 5.11 µM), 1.1 µg/mL (≈ 3.75 µM), 0.9 µg/mL (≈ 3.07 µM) and 0.8 µg/mL (≈ 2.73 µM).
`COc1cc(OC)cc(C2NCCc3c2[nH]c2ccccc32)c1` (stereo not drawn) [Compound 12, 1-(3′,5′-Dimethoxyphenyl)-1,2,3,4-tetrahydro-β-carboline]: the IC50 is 0.4 µg/mL (≈ 1.3 µM) in series [1] (setting [4]), 1.4 µg/mL (≈ 4.54 µM) in series [2] (setting [5]), 0.6 µg/mL (≈ 1.95 µM) in series [3] (setting [4]) and 0.2 µg/mL (≈ 0.649 µM) in the series with P-388 (murine leukemia) (setting [5]).
As for “1-(3′-Nitro-4′-Benzo-1″,3″-dioxole)-3,4-dihydro-β-carboline [Compound 27]”, the “IC50, concentration inhibiting 50% of the growth of HT-29” value in series [1] (setting [4]) turned out to be 1.0 µg/mL. For the same compound, the “IC50, concentration inhibiting 50% of the growth of KB-16” value in series [2] (setting [5]) was 0.8 µg/mL. The “IC50, concentration inhibiting 50% of the growth of A-549” value in series [3] (setting [4]) is 0.6 µg/mL. For the same compound, the “IC50, concentration inhibiting 50% of the growth of P-388” value in the series with P-388 (murine leukemia) (setting [5]) came out at 0.3 µg/mL.
For `Brc1ccc(C2NCCc3c2[nH]c2ccccc32)cc1` (stereo not drawn) [Compound 5, 1-(4′-Bromophenyl)-1,2,3,4-tetrahydro-β-carboline], the IC50 in series [1] (setting [4]) was 1.1 µg/mL (≈ 3.36 µM); in series [2] (setting [5]), 2.1 µg/mL (≈ 6.42 µM); in series [3] (setting [4]), 3 µg/mL (≈ 9.17 µM); in the series with P-388 (murine leukemia) (setting [5]), 1 µg/mL (≈ 3.06 µM).
Regarding `COc1ccc(C2NCCc3c2[nH]c2ccccc32)c(OC)c1` (stereo not drawn) [Compound 9, 1-(2′,4′-Dimethoxyphenyl)-1,2,3,4-tetrahydro-β-carboline], the IC50 in series [1] (setting [4]) came to 1.1 µg/mL (≈ 3.57 µM); in series [2] (setting [5]) it was 0.7 µg/mL (≈ 2.27 µM); in series [3] (setting [4]), 1.1 µg/mL (≈ 3.57 µM); with P-388 (murine leukemia) (setting [5]) it was 0.6 µg/mL (≈ 1.95 µM).
On to `O=[N+]([O-])c1cc(C2NCCc3c2[nH]c2ccccc32)cc2c1OCO2` (stereo not drawn) [Compound 14, 1-(3′-Nitroz4′-Benzo-1″,3″-dioxole)-1,2,3,4-tetrahydro-β-carboline], for which the “IC50, concentration inhibiting 50% of the growth of HT-29” value in series [1] (setting [4]) was found to be 1.4 µg/mL. In addition, the “IC50, concentration inhibiting 50% of the growth of KB-16” value in series [2] (setting [5]) stood at 6.0 µg/mL. Also, in series [3] (setting [4]), the “IC50, concentration inhibiting 50% of the growth of A-549” value was determined as 1.7 µg/mL. Moreover, the “IC50, concentration inhibiting 50% of the growth of P-388” value with P-388 (murine leukemia) (setting [5]) amounted to 0.3 µg/mL.
Take `COc1ccc(OC)c(C2NCCc3c2[nH]c2ccccc32)c1` (stereo not drawn) [Compound 11, 1-(2′,5′-Dimethoxyphenyl)-1,2,3,4-tetrahydro-β-carboline]: the IC50 turned out to be 2.2 µg/mL (≈ 7.13 µM) in series [1] (setting [4]), 3.7 µg/mL (≈ 12 µM) in series [2] (setting [5]), 2 µg/mL (≈ 6.49 µM) in series [3] (setting [4]) and 2.6 µg/mL (≈ 8.43 µM) in the series with P-388 (murine leukemia) (setting [5]).
On the same counts, the results for `Clc1ccc(C2NCCc3c2[nH]c2ccccc32)cc1` (stereo not drawn) [Compound 4, 1-(4′-Chlorophenyl)-1,2,3,4-tetrahydro-β-carboline] are 0.9 µg/mL (≈ 3.18 µM), 0.7 µg/mL (≈ 2.48 µM), 0.6 µg/mL (≈ 2.12 µM) and 0.2 µg/mL (≈ 0.707 µM).
With `O[C@]12C=C(c3nccc4c3[nH]c3ccccc34)[C@@H]3CCN(CCCC/C=C\CC1)C[C@@]31C[C@@H]3/C=C\CCCCN3[C@@H]12` [Compound 3, manzamine A, reference compound], the IC50 in series [1] is 0.1 µg/mL (≈ 0.182 µM); in series [2], below 0.001 µg/mL; in series [3], 0.03 µg/mL (≈ 0.0547 µM); with P-388 (murine leukemia), 0.07 µg/mL (≈ 0.128 µM). For the same compound, the “cytotoxicity against murine P-388 cells” value with murine P-388 cells was 0.07 µg/mL.
For the compound `COc1cc(C2=NCCc3c2[nH]c2ccccc32)cc(OC)c1OC` [Compound 26, 1-(3′,4′,5′-Trimethoxyphenyl)-3,4-dihydro-β-carboline], the IC50 was found to be 0.7 µg/mL (≈ 2.08 µM) in series [1] (setting [4]), 1.4 µg/mL (≈ 4.16 µM) in series [2] (setting [5]), 0.5 µg/mL (≈ 1.49 µM) in series [3] (setting [4]) and 1.2 µg/mL (≈ 3.57 µM) with P-388 (murine leukemia) (setting [5]).
`c1ccc2c(c1)Cc1cc(C3NCCc4c3[nH]c3ccccc43)ccc1-2` (stereo not drawn) [Compound 15, 1-(2′-Fluorenyl)-1,2,3,4-tetrahydro-β-carboline]: the “IC50, concentration inhibiting 50% of the growth of HT-29” value in series [1] (setting [4]) came out at 0.5 µg/mL. In series [2] (setting [5]), the “IC50, concentration inhibiting 50% of the growth of KB-16” value stood at 0.4 µg/mL. In addition, the “IC50, concentration inhibiting 50% of the growth of A-549” value in series [3] (setting [4]) amounted to 0.6 µg/mL. In the series on P-388 (murine leukemia) (setting [5]), the “IC50, concentration inhibiting 50% of the growth of P-388” value amounted to 0.1 µg/mL.
On the same counts, the results for `CCN(CC)c1ccc(C2NCCc3c2[nH]c2ccccc32)cc1` (stereo not drawn) [Compound 8, 1-(4′-N-Diethylaminophenyl)-1,2,3,4-tetrahydro-β-carboline] are 1.1 µg/mL, 0.2 µg/mL, 1.1 µg/mL and 0.07 µg/mL.
